According to US20090105207A1, “Copper (1) Complex” (priority 2006, published 2009):

How the values were obtained:
rats [1] = experiment: Bioavailability studies on rats (liver and kidney functions, blood picture, lipid profile); format: in vivo; conditions: for Lipid profile: all groups
Text: The study on rats included five groups, group 1 control, 2 receiving cu, group.2 pyrazinic, group 3 complex with large dose, & group 5 receiving complex with small dose.

[2] = Stability of the solid complex; format: physicochemical
[3] = Solubility of the complex in solvents; format: physicochemical
Text: Solubility: the complex is insoluble in non polar solvents, e.g. benzene, carbon tetrachloride, etc., and insoluble in polar solvents: water, methanol, ethanol, acetone, but soluble in these solvents upon heating in inert atmosphere, to prevent oxidation.

rats [4] = experiment: Toxicity of the complex (LD50, mortality within 24 hrs); format: in vivo
Method: Seventy two rats (250+/−2.0 g b.wt) were randomly located into 12 groups of 6 rats each
Mortality in each group were recorded within 24 hrs. The LD50 was calculated according to Behecens and Karbere (1970)

[5] = tested on: muscle weakness (muscle dystrophies, post stroke weakness); experiment: Clinical trials for treatment of weakness of muscles; format: in vivo, human
Text: The complex used in treatment of muscle weakness for different underlying causes (muscle dystrophies post stroke weakness). […] When the patient reaches the optimum dose, onset of improvement in muscle power is observed within hours of drug intake.

dilated Cardiomyopathy = experiment: Clinical trials in cardiomyopathy; format: in vivo, human; conditions: clinically and in ECHO cardiographic measurements
Text: Improvement is shown both clinically and in the ECHO cardiographic measurements.

[6] = tested on: male infertility (sperm count, motility); experiment: Male infertility study, 20 patients; format: in vivo, human
fatigue = experiment: Clinical trials for treatment of fatigue in humans; format: in vivo
[7] = tested on: stem cells, CD4 and CD8 cells; experiment: In vivo stem cell, CD4 and CD8 counts before and during medication; conditions: before and at regular intervals of medication
Text: We hypothesized that the drug may have a role in stimulating the stem cells present in the various organs to differentiate. […] In vivo we measured the stem cell count together with CD8 and CD4 cells before, and at regular intervals of medication.

[8] = complex at large and small dose

Compound: O=C(O)c1cnccn1 [pyrazinic, pyrazinic acid, reference compound]
- Lipid profile (rats [1]): didn't show significant difference
- Liver and kidney functions versus control group (rats [1]; [8]): no significant difference

Compound: [CuCI (pyrazinic acid) 2]. 2H2O [complex]
- Stability [2]: sufficiently stable when well-dried
- Solubility in non polar solvents ([3]; e.g. benzene, carbon tetrachloride): insoluble
- Solubility in polar solvents ([3]; water, methanol, ethanol, acetone): insoluble
- Solubility in polar solvents upon heating ([3]; water, methanol, ethanol, acetone, heating in inert atmosphere): soluble
- LD50 (intrapperitoneally) (rats [4]; intraperitoneal): 128 mg/kg
- LD50 (oral) (rats [4]; oral): 1104.17 mg/kg
- Lipid profile (rats [1]): didn't show significant difference
- Liver and kidney functions versus control group (rats [1]; [8]): no significant difference
- Lymphocytic count (complete blood picture) (rats [1]; complex at large and small dose, not exceeding the normal range): increase of lymphocytic count
- Clinical improvement in DMS patients ([5]; affected by age, weight and degree of dystrophy): dose dependant
- Onset of improvement in muscle power ([5]; at optimum dose, after drug intake): within hours
- Cases improved, dilated cardiomyopathy due to other causes (dilated Cardiomyopathy): 80%
- Improvement of dilated cardiomyopathy secondary to Duchenne muscle dystrophy (dilated Cardiomyopathy): improved all cases
- Sperm motility ([6]; all cases): significant improvement
- Healthy babies, azospermic patients ([6]; among the seven responding azospermic patients): two of them got healthy babies
- Healthy babies, oligospermia ([6]; oligospermia cases): four cases got also healthy babies
- Sperm count in azospermic patients ([6]; seven out of nine patients, within 6 weeks of treatment): 1.5-3 millions/hpf
- Sperm count in oligospermia ([6]; within 1 month of treatment): doubling of the count
- Agonizing fatigue in Parkinsonism, myositis, disseminated sclerosis (fatigue): improves markedly
- Effect in all types of fatigue (fatigue): relieved the muscle pain, increased the physical activity and productivity
- CD4/CD8 [7]: no disturbance
- CD4 and CD8 number [7]: increase
- Stem cell count [7]: significant decrease
